Tests used:
Format in all cases: cell-based, mouse
[1] = tested on: peptide-primed T lymphocytes from BALB/c mice
[2] = tested on: TCR of peptide-primed lymph node T-cells
[3] = tested on: peptide-primed T lymphocytes from BALB/c mice; remark: listed apart in the source

What does the source list for “CH3CO-(D)Thr-(D)Asp-(D)Lys-(D)Tyr-(D)Thr-(D)Ile-(D)Lys-(D)Trp-(D)Val-(D)Ala-(D)Phe-(D)Leu-(D)Lys-NH2”?
IL-2 production of lymph node cells of mice immunized with parent peptide 103–115, stimulated in vitro by the peptide [1]: No IL-2 production was observed; maximal IL-2 secretion measured using CTL-L cells in the presence of Con A [1]: 5 570 cpm; IL-2 secretion by T-cells from mice immunized against the L-peptide 103–115 in the presence of the peptide [2]: remains unchanged; proliferation of T-lymphocytes of mice immunized with retro-inverso analogue 103–115, in response to the peptide [3]: proliferated in response to the homologous peptide; proliferation of lymph node cells of mice immunized with parent peptide 103–115, stimulated in vitro by the peptide [3]: did not proliferate in vitro

— patent US7122193B1 (priority 1994, dated 2006)
